Measured values published in patent publication US20100048403A1, “Method of inducing virus tolerance of plants” (BASF SE, priority 2007, published 2010).

Tested on: Cucumber Green Mottle Mosaic Virus (CGMMV)
Assay: Symptom expression of CGMMV in cucumbers treated 7 days before mechanical inoculation
Type: in vivo
Conditions: cucumber plants, 500 g product in 200 litres water sprayed to run-off 7 days before inoculation
Experimental: The experiment tested the effect of boscalid (as Filan®) on the symptom expression of CGMMV in cucumbers. Cucumber plants were treated with Filan or water 7 days before mechanical inoculation with CGMMV. Filan® was applied at 500 g in 200 litres water. Sprays were applied as a fine spray to run-off.
The experiment consisted of 5 plants per each treatment, with three replicates arranged randomly after fungicide treatment, but before inoculation. Plants were then inoculated in situ. Plants were mechanically inoculated at the 4-6 true leaf stage. Cucumber leaves showing symptoms and confirmed by CSL as infected with CGMMV were used as the source of inoculum. Several infected leaves were crushed in a plastic bag with a small amount of distilled water to extract the sap. This sap was then gently rubbed onto the second lowest green leaf of each plant in the experiment. Symptoms of CGMMV were assessed at intervals following inoculation.

With O=C(Nc1ccccc1-c1ccc(Cl)cc1)c1cccnc1Cl [Boscalid, boscalid] the “Number of leaves with symtoms, 8 days after inoculation (Average)” value (8 days after inoculation, untreated 2.4) was 0.8 and the “Number of leaves with symtoms, 33 days after inoculation (Average)” value (33 days after inoculation, untreated 7.4) was 4.4.
